Here are results for four compounds from ChEMBL document CHEMBL5120964, “Novel Antagonist of the Type 2 Lysophosphatidic Acid Receptor (LPA2), UCM-14216, Ameliorates Spinal Cord Injury in Mice” (J Med Chem, 2022).

The target of series [1] is T1, Lysophosphatidic acid receptor 3 (Homo sapiens) (UniProt Q9UBY5).
T1 sequence (whole entry): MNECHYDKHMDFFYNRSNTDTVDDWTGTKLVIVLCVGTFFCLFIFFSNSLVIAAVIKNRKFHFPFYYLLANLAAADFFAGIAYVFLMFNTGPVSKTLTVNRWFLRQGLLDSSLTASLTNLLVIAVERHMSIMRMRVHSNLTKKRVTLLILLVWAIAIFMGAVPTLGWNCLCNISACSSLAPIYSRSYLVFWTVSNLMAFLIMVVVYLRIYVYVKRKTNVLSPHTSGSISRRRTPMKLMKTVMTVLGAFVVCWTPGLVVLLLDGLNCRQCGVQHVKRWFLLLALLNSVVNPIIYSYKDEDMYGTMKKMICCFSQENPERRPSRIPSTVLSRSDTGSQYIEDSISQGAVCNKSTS
Kind of series: Antagonist activity at LPA3 receptor (unknown origin) expressed in cells assessed as maximal blockade of LPA-induced calcium mobilization at 10 uM measured after 120 secs by Fluo-4 NW dye based assay relative to control. The series is classed as functional, cell-based. The conditions noted are these: filed as antagonist, time 120.0 sec. A general note: Calcium flux is commonly read through the fluorescence of an indicator in the cells.

In series [2] the target is T2, Lysophosphatidic acid receptor 2 (Homo sapiens, UniProt Q9HBW0). Description: Antagonist activity at LPA2 receptor (unknown origin) expressed in cells assessed as maximal blockade of LPA-induced calcium mobilization at 10 uM measured after 120 secs by Fluo-4 NW dye based assay relative to control. The series is classed as functional, cell-based. The conditions noted are these: filed as antagonist, time 120.0 sec.

For series [3], the target named is T2, Lysophosphatidic acid receptor 2. Kind of series: Antagonist activity at LPA2 receptor (unknown origin) expressed in cells assessed as blockade of LPA-induced calcium mobilization measured after 120 secs by Fluo-4 NW dye based assay. The class given is functional, cell-based.
A short description of series [4]: Metabolic stability in human liver microsomes assessed as half life by HPLC-MS analysis. The series is classed as ADME, Microsome. In general terms: Microsomes from liver hold many membrane-bound enzymes, among them those of drug oxidation.
Series [5] deals with Mus musculus. Kind of series: Protection of spinal cord injury-induced locomotor defect in C57B1/6J mouse model assessed as increase in motor skills at 25 mg/kg, ip treated 35 days after post injury for 10 consecutive days. The conditions noted are these: time 35.0 day. The series is classed as functional, organism-based.
Series [6] is described as follows: Plasma concentration in C57B1/6J mouse at 25 mg/kg, ip measured after 0.5 hrs by HPLC-MS analysis.
Series [7] deals with Mus musculus. Description: Protection of spinal cord injury-induced locomotor defect in C57B1/6J mouse model assessed as increase in locomotor activity at 25 mg/kg, ip treated for 10 consecutive days. The series is classed as functional, organism-based.
Series [8] concerns Mus musculus. Kind of series: Protection of spinal cord injury-induced locomotor defect in C57B1/6J mouse model assessed as frequent stepping at 25 mg/kg, ip treated 35 days after post injury for 10 consecutive days. The conditions noted are these: time 35.0 day. The class given is functional, organism-based.

The structures appear in SMILES notation. Calls of active or inactive are those of the source. No cut-off for these calls is given here.

T2 sequence (Q9HBW0 whole entry): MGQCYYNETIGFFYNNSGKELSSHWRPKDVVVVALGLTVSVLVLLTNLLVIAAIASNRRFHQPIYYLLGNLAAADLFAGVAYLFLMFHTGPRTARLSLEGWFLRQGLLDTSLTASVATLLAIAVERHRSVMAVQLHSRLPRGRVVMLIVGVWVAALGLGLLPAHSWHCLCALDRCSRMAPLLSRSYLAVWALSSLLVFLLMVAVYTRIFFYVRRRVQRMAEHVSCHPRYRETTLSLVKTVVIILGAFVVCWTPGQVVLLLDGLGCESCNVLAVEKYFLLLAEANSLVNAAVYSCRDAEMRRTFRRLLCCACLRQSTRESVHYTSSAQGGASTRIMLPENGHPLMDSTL

With `Cc1noc(-c2ccc(OCC(=O)O)cc2O)c1Oc1ccc(Cl)cc1Cl`, the Emax (in general, the greatest response seen or fitted, relative to the assay's reference) in series [1] is 71%; in series [2], 58%.

With `Cc1[nH]nc(-c2ccc(OCc3nnn[nH]3)cc2O)c1Oc1ccc(F)cc1F`, the IC50 (in general, the concentration that gives 50% inhibition) in series [3] was 31 µM.

On to `Cc1[nH]nc(-c2ccc(OCC(=O)O)cc2O)c1Oc1ccc(Cl)cc1Cl`, for which the t1/2 in series [4] is 1.02 h.

For `Cc1[nH]nc(-c2ccc(OCc3nnn[nH]3)cc2O)c1Oc1ccc(Cl)cc1Cl`, the outcome in the series on Mus musculus [5], in the series with Mus musculus [7] and in the series on Mus musculus [8] was Active. For the same compound, the concentration at 0.5 h in series [6] came out at 103000 ng/g.
